US9532519B2, “Plant growth regulator and use thereof” (Japan Science and Technology Agency, priority 2006, dated 2017)

Experiments:
[1] = tested on: Rose saplings (breed; JJ scarlet and JJ apricot); assay: Effect 2 on promoting growth of sprout and floral bud of rose (JJ scarlet and JJ apricot); assay type: in vivo; settings: 50 mL of 0.5 mM-GSSG two times a week; fourth and eighth day from the fertilization
Description: Rose saplings (breed; JJ scarlet and JJ apricot) were purchased at a hardware store and cultivated in pods for rice hydroponics. The rose saplings were fertilized with 50 mL of a 0.5 mM-GSSG solution in the form of a liquid fertilizer two times a week.
In (a)-(d) of FIG. 35, the breeds of three plants are JJ scarlet, JJ apricot, and JJ scarlet, respectively from the left.

Arabidopsis [2] = assay: Influence 5 of treatment condition on Arabidopsis: seed weight, dry weight, harvest index; assay type: in vivo
Description: Seeds of Arabidopsis were sown in pods filled with soil immersed in water. The pods were transferred to trays filled with water containing 0.2 mM-GSSG or 1 mM-GSSG and cultivated there only for two weeks that were the first and second weeks (0th-14th day), the third and fourth weeks (15th-28th day), the fifth and sixth weeks (29th-42nd day), or the seventh and eighth weeks (43rd-56th day) after the sowing. That is, Arabidopsis were treated with 0.2 mM-GSSG or 1 mM-GSSG only for two weeks in a specific growth period.
(§1) Arabidopsis was cultivated under the same conditions as those described in <1. Influence of oxidized glutathione on growth of Arabidopsis> except for the above condition.
The seed weight, dry weight, and harvest index of Arabidopsis thus cultivated (three plants in each pod) were measured and an average of three pods was calculated.

[3] = tested on: transformants of Arabidopsis to which a gene encoding gFBA was introduced and wild-type Arabidopsis (Columbia; Col); settings: in vivo
Arabidopsis [4] = assay: Influence 1 of treatment condition on seeds of Arabidopsis (concentration and duration from sowing); assay type: in vivo
Description: Seeds of Arabidopsis were sown in pods filled with soil immersed in 0 mM-, 0.01 mM-, 0.2 mM-, 1 mM-, 2 mM-, and 5 mM-GSSG.
as §1
The seed weight per one pod, obtained from Arabidopsis thus cultivated (three plants in each pod), was measured. The results of the measurement are shown in FIGS. 10-12. n is the number of plants that can be finally harvested.

eustoma = assay: Effect on promoting growth of roots of eustoma; assay type: in vivo; settings: MS culture medium containing 1 mM-GSSG or GSH, grown 1 month, transferred to planter
Description: In the planter, 2 parts of vermiculite, 1 part of The Kureha Ikubyou Baido soil, and 1 part of vermiculite were layered as a lower layer, a middle layer, and an upper layer, respectively, and the above plants were transferred thereto.

[5] = tested on: Sweet corn (Canberra 90, TAKII & CO., LTD.); assay: Effect 2 of oxidized glutathione on productivity of corn (time of treatment); assay type: in vivo
Description: Sweet corn (Canberra 90, TAKII & CO., LTD.) was sown, and then transferred to a hydroponics pot ( 1/2000 are) filled with a culture soil (6 L of vermiculite as the lower layer, 3 L of The Kureha Ikubyou Baido soil as the middle layer, and 3 L of vermiculite as the upper layer) two weeks later and additionally fertilized with 3 g of KUMIAI RIN […] S604 four weeks later and six weeks later.
Further, the GSSG-treated plant was given 50 mL of 0.2 mM-GSSG solution four times in 2 weeks (two times a week) after 2 weeks, 4 weeks, or 6 weeks had elapsed from the sowing. Further, there were prepared a management zone to which 0.2 mM-GSSG was given 22 times in total for 11 weeks after 2 weeks had elapsed from the sowing and a management zone to which 0.2 mM-GSSG was not given.
The amount of fruits and the amount of biomass of ground parts of each plant were measured and harvest index was calculated.

Sweet corn = settings: in vivo
Arabidopsis [6] = assay: Influence 4 of treatment condition on seeds of Arabidopsis (two weeks of 1 mM-GSSG); assay type: in vivo; settings: 1 mM-GSSG only for two weeks in a specific growth period
Description: Seeds of Arabidopsis were sown in pods filled with soil immersed in water. The pods were transferred to trays filled with water containing 1 mM-GSSG and cultivated there only for two weeks that are the first and second weeks (0th-14th day), the second and third weeks (8th-21st day), the third and fourth weeks (15th-28th day), the fourth and fifth weeks (22nd-35th day), the fifth and sixth weeks (29th-42nd day), or the sixth and seventh weeks (36th-49th day) after the sowing. That is, Arabidopsis were treated with 1 mM-GSSG only for two weeks in a specific growth period.
as §1
The seed weight per one pod, obtained from Arabidopsis thus cultivated (three plants in each pod), was measured.

[7] = tested on: Roses (breed; Patiohit alicante); assay: Effect 1 on promotion of induction of floral bud of rose; assay type: in vivo; settings: 50 mL of 0.5 mM-GSSG two times a week; approximately three and a half months
Description: Roses (breed; Patiohit alicante) were purchased at a hardware store and fertilized with 50 mL of a 0.5 mM-GSSG solution in the form of a liquid fertilizer two times a week. Approximately three and a half months later, plants in a GSSG-treated zone and plants in a non-GSSG-treated zone were compared with each other.

[8] = tested on: Soybean (breed: Tsurumusume) and soybean (breed; Toyomusume); assay: Influence of oxidized glutathione on growth and yield of seeds of soybean, agricultural field; assay type: in vivo; settings: 0.5 mM-GSSG, 50 mL per individual two times a week at base of stem; each breed
Description: The soybean was fertilized with a nitrogen fertilizer that was KUMIAI RIN […] S604 in a ratio of 20 kgN per 10 are, and was additionally fertilized with 5 kgN 3 weeks later.
Further, in a GSSG-treated management zone, a 0.5 mM-GSSG solution was given to the base of a stem (see the arrow in FIG. 21) in the amount of 50 mL per one individual two times a week in such a manner that the solution flowed along the stem.
In a case where it was likely to rain, the GSSG solution was supplied to the plant after the rain. Similarly, in a case of watering, the GSSG solution was supplied to the plant after the watering. When the harvest time of the plant of the control (i.e. normal nitrogen management zone) was coming, supply of the GSSG solution to the plant in the GSSG-treated management zone was stopped.
The seed weight, the amount of biomass, and the harvest index of the plant thus obtained in the GSSG-treated management zone, each relative to that of the plant in the normal nitrogen management zone, were measured.

[9] = tested on: strawberry (breed; Eminent garden series, Yokubari-ichigo kurenai (SUMIKA)); assay: Effect of oxidized glutathione on growth of strawberry (number of runners); assay type: in vivo; settings: 50 mL of 0.5 mM-GSSG two times a week; four months after the fertilization; Cont zone two or three runners
[10] = 0.2 mM-GSSG, eleven weeks after two weeks had elapsed from the sowing

## oxidized glutathione [GSSG]
[1]
  growth of sprout vs not treated: promoted growth of sprout
Arabidopsis [2]; 0.2 mM-GSSG
  dry weight vs not treated: increased little
  harvest index vs not treated: increased
  seed weight vs not treated: increased
Arabidopsis [2]; 1 mM-GSSG
  dry weight vs not treated: evidently increased
  seed weight vs not treated: evidently increased
Arabidopsis [2]; 1 mM-GSSG, except when treated 1 or 2 weeks after the sowing
  harvest index vs not treated: evidently increased
[3]
  ability to increase harvest index and crop yields, oxidized vs reduced glutathione: higher ability to increase the harvest index and to significantly increase crop yields than reduced glutathione
Arabidopsis [4]; supplying GSSG for a long time
  seed weight per pod: effective concentration: GSSG with low concentration is more effective than GSSG with high concentration
Arabidopsis [4]; supplying GSSG for a short time
  seed weight per pod: effective concentration: GSSG with high concentration is more desirable
eustoma
  growth of roots vs plants not treated with GSSG: significant growth of roots
[5]; [10]
  amount of fruits and amount of biomass of ground parts per plant vs not treated: a larger amount of fruits and a larger amount of biomass of ground parts
  harvest index vs not treated: great increase in harvest index
[5]; 0.2 mM-GSSG, two weeks after four weeks had elapsed from the sowing
  amount of fruits and amount of biomass of ground parts per plant vs not treated: a larger amount of fruits and a larger amount of biomass of ground parts
[5]; 0.2 mM-GSSG, two weeks after six weeks had elapsed from the sowing
  amount of fruits and amount of biomass of ground parts per plant vs not treated: a smaller amount of fruits and a smaller amount of biomass of ground parts
[5]; 50 mL of 0.2 mM-GSSG, two weeks after four weeks had elapsed from the sowing
  harvest index vs not treated: great increase in harvest index
[5]; 50 mL of 0.2 mM-GSSG, two weeks after six weeks had elapsed from the sowing
  harvest index vs not treated: larger harvest index
Sweet corn
  amount of biomass of fruits per plant vs not treated: higher amount of biomass of fruits
  amount of biomass of ground parts vs not treated: substantially the same or lower amount of biomass of ground parts
  amount of biomass of the portions other than fruits vs not treated: lower amount of biomass of the portions other than fruits
  amounts of biomass of the portions other than fruits and ground parts vs not treated: greatly lower amounts of biomass of the portions other than fruits and ground parts
  harvest index vs not treated: higher harvest index
  whole amount of biomass per area vs not treated: did not exhibit a significant difference
Arabidopsis [6]
  seed weight per one pod vs not treated: significantly increased the seed weight
[7]
  number of bloomed flowers vs not treated: greatly larger number of bloomed flowers
[8]
  amount of biomass vs normal nitrogen management zone: higher
  harvest index vs normal nitrogen management zone: higher
  seed weight vs normal nitrogen management zone: higher
[9]
  number of runners per one stock: several ten runners per one stock
